Data reported in ChEMBL document CHEMBL3351417, “Thiophene-3-carboxamide analogue of annonaceous acetogenins as antitumor drug lead” (Eur J Med Chem, 2014).
The source made the active and inactive calls. The calls are words filed in the database; no cut-off is given here.

Experiments:
[1] = Growth inhibition of human HBC4 cells after 48 hrs by sulforhodamine B colorimetric assay; assay type: functional; conditions: HBC4, 48 h
[2] = Growth inhibition of human BSY1 cells after 48 hrs by sulforhodamine B colorimetric assay; assay type: functional; conditions: BSY-1, 48 h
[3] = Growth inhibition of human HBC5 cells after 48 hrs by sulforhodamine B colorimetric assay; assay type: functional; conditions: HBC5, 48 h
MCF7 = test: Growth inhibition of human MCF7 cells after 48 hrs by sulforhodamine B colorimetric assay; assay type: functional; conditions: MCF7, 48 h
MDA-MB-231 = test: Growth inhibition of human MDA-MB-231 cells after 48 hrs by sulforhodamine B colorimetric assay; assay type: functional; conditions: MDA-MB-231, 48 h
U-251 = test: Growth inhibition of human U251 cells after 48 hrs by sulforhodamine B colorimetric assay; assay type: functional; conditions: U-251, 48 h
SF-268 = test: Growth inhibition of human SF268 cells after 48 hrs by sulforhodamine B colorimetric assay; assay type: functional; conditions: SF-268, 48 h
[4] = Growth inhibition of human SF295 cells after 48 hrs by sulforhodamine B colorimetric assay; assay type: functional; conditions: SF-295, 48 h
[5] = Growth inhibition of human SF539 cells after 48 hrs by sulforhodamine B colorimetric assay; assay type: functional; conditions: SF-539, 48 h
SNB-75 = test: Growth inhibition of human SNB75 cells after 48 hrs by sulforhodamine B colorimetric assay; assay type: functional; conditions: SNB-75, 48 h
[6] = Growth inhibition of human SNB78 cells after 48 hrs by sulforhodamine B colorimetric assay; assay type: functional; conditions: SNB-78, 48 h
[7] = Growth inhibition of human HCC2998 cells after 48 hrs by sulforhodamine B colorimetric assay; assay type: functional; conditions: HCC 2998, 48 h
KM12 = test: Growth inhibition of human KM12 cells after 48 hrs by sulforhodamine B colorimetric assay; assay type: functional; conditions: KM12, 48 h
HT-29 = test: Growth inhibition of human HT-29 cells after 48 hrs by sulforhodamine B colorimetric assay; assay type: functional; conditions: HT-29, 48 h
[8] = Growth inhibition of human HCT15 cells after 48 hrs by sulforhodamine B colorimetric assay; assay type: functional; conditions: HCT-15, 48 h
[9] = Growth inhibition of human HCT116 cells after 48 hrs by sulforhodamine B colorimetric assay; assay type: functional; conditions: HCT-116, 48 h
NCI-H23 [10] = test: Growth inhibition of human NCI-H23 cells after 48 hrs by sulforhodamine B colorimetric assay; assay type: functional; conditions: NCI-H23, 48 h
NCI-H226 = test: Growth inhibition of human NCI-H226 cells after 48 hrs by sulforhodamine B colorimetric assay; assay type: functional; conditions: NCI-H226, 48 h
NCI-H522 = test: Growth inhibition of human NCI-H522 cells after 48 hrs by sulforhodamine B colorimetric assay; assay type: functional; conditions: NCI-H522, 48 h
NCI-H460 = test: Growth inhibition of human NCI-H460 cells after 48 hrs by sulforhodamine B colorimetric assay; assay type: functional; conditions: NCI-H460, 48 h
A549 = test: Growth inhibition of human A549 cells after 48 hrs by sulforhodamine B colorimetric assay; assay type: functional; conditions: A549, 48 h
[11] = Growth inhibition of human DMS273 cells after 48 hrs by sulforhodamine B colorimetric assay; assay type: functional; conditions: DMS-273, 48 h
[12] = Growth inhibition of human DMS114 cells after 48 hrs by sulforhodamine B colorimetric assay; assay type: functional; conditions: DMS-114, 48 h
[13] = Growth inhibition of human LOXIMVI cells after 48 hrs by sulforhodamine B colorimetric assay; assay type: functional; conditions: LOX IMVI
[14] = Growth inhibition of human OVCAR3 cells after 48 hrs by sulforhodamine B colorimetric assay; assay type: functional; conditions: OVCAR-3, 48 h
[15] = Growth inhibition of human OVCAR4 cells after 48 hrs by sulforhodamine B colorimetric assay; assay type: functional; conditions: OVCAR-4, 48 h
[16] = Growth inhibition of human OVCAR5 cells after 48 hrs by sulforhodamine B colorimetric assay; assay type: functional; conditions: OVCAR-5, 48 h
[17] = Growth inhibition of human OVCAR8 cells after 48 hrs by sulforhodamine B colorimetric assay; assay type: functional; conditions: OVCAR-8, 48 h
SK-OV-3 = test: Growth inhibition of human SKOV3 cells after 48 hrs by sulforhodamine B colorimetric assay; assay type: functional; conditions: SK-OV-3, 48 h
[18] = Growth inhibition of human RXF631L cells after 48 hrs by sulforhodamine B colorimetric assay; assay type: functional; conditions: RXF 631, 48 h
ACHN = test: Growth inhibition of human ACHN cells after 48 hrs by sulforhodamine B colorimetric assay; assay type: functional
St-4 = test: Growth inhibition of human St-4 cells after 48 hrs by sulforhodamine B colorimetric assay; assay type: functional; conditions: St-4, 48 h
[19] = Growth inhibition of human MKN1 cells after 48 hrs by sulforhodamine B colorimetric assay; assay type: functional; conditions: MKN-1, 48 h
[20] = Growth inhibition of human MKN7 cells after 48 hrs by sulforhodamine B colorimetric assay; assay type: functional; conditions: MKN-7, 48 h
[21] = Growth inhibition of human MKN28 cells after 48 hrs by sulforhodamine B colorimetric assay; assay type: functional; conditions: MKN-28, 48 h
[22] = Growth inhibition of human MKN45 cells after 48 hrs by sulforhodamine B colorimetric assay; assay type: functional; conditions: MKN-45, 48 h
[23] = Growth inhibition of human MKN74 cells after 48 hrs by sulforhodamine B colorimetric assay; assay type: functional; conditions: MKN-74, 48 h
DU-145 = test: Growth inhibition of human DU145 cells after 48 hrs by sulforhodamine B colorimetric assay; assay type: functional; conditions: DU-145, 48 h
[24] = Growth inhibition of human PC3 cells after 48 hrs by sulforhodamine B colorimetric assay; assay type: functional; conditions: PC-3, 48 h
NCI-H23 [25] = test: Antitumor activity against human NCI-H23 cells xenografted in mouse assessed as inhibition of tumor growth on day 16 at 100 mg/kg, ip on day 0 and day 6; assay type: functional, organism-based; set-up: dose 100 mg/kg
NCI-H23 [26] = test: Antitumor activity against human NCI-H23 cells xenografted in mouse assessed as average tumor size on day 16 at 100 mg/kg, ip on day 0 and day 6 relative to control mouse; assay type: functional; conditions: route intraperitoneal

Compound: CCCCCCCCCCCC[C@@H](O)[C@H]1CC[C@H]([C@H](O)CCCCCCCCCCNC(=O)c2ccsc2)O1
- GI50 [1]: > 100 µM
- GI50 [2]: 3.02 µM
- GI50 [3]: 2.09 µM
- GI50 (MCF7): 2 µM
- GI50 (MDA-MB-231): 4.47 µM
- GI50 (U-251): > 100 µM
- GI50 (SF-268): > 100 µM
- GI50 [4]: 1 µM
- GI50 [5]: > 100 µM
- GI50 (SNB-75): 2.82 µM
- GI50 [6]: > 100 µM
- GI50 [7]: 2.19 µM
- GI50 (KM12): 3.02 µM
- GI50 (HT-29): 1.91 µM
- GI50 [8]: 38 µM
- GI50 [9]: 1.29 µM
- GI50 (NCI-H23 [10]): 0.2 µM
- GI50 (NCI-H226): 2.4 µM
- GI50 (NCI-H522): 1 µM
- GI50 (NCI-H460): 4.9 µM
- GI50 (A549): > 100 µM
- GI50 [11]: 2 µM
- GI50 [12]: 0.17 µM
- GI50 [13]: 1.51 µM
- GI50 [14]: 1.7 µM
- GI50 [15]: 1.7 µM
- GI50 [16]: 2.69 µM
- GI50 [17]: 1.91 µM
- GI50 (SK-OV-3): > 100 µM
- GI50 [18]: > 100 µM
- GI50 (ACHN): 3.89 µM
- GI50 (St-4): 1.7 µM
- GI50 [19]: 2.29 µM
- GI50 [20]: 0.17 µM
- GI50 [21]: 0.575 µM
- GI50 [22]: 3.72 µM
- GI50 [23]: 1.51 µM
- GI50 (DU-145): 2.19 µM
- GI50 [24]: 1.7 µM
- inhibition (NCI-H23 [25]): Active
- Activity (NCI-H23 [26]): 16%

Compound: CCCCCCCCCCCC[C@@H](O)[C@H]1CC[C@H]([C@H](O)CCCCCCCCCCNC(=O)c2ccco2)O1
- GI50 [1]: > 100 µM
- GI50 [2]: 0.49 µM
- GI50 [3]: > 100 µM
- GI50 (MCF7): > 100 µM
- GI50 (MDA-MB-231): > 100 µM
- GI50 (U-251): > 100 µM
- GI50 (SF-268): > 100 µM
- GI50 [4]: 33.9 µM
- GI50 [5]: 81.3 µM
- GI50 (SNB-75): > 100 µM
- GI50 [6]: > 100 µM
- GI50 [7]: > 100 µM
- GI50 (KM12): > 100 µM
- GI50 (HT-29): > 100 µM
- GI50 [8]: > 100 µM
- GI50 [9]: 7.76 µM
- GI50 (NCI-H23 [10]): 12.9 µM
- GI50 (NCI-H226): 97.7 µM
- GI50 (NCI-H522): 18.2 µM
- GI50 (NCI-H460): 18.2 µM
- GI50 (A549): > 100 µM
- GI50 [11]: 39.8 µM
- GI50 [12]: 0.282 µM
- GI50 [13]: 17 µM
- GI50 [14]: > 100 µM
- GI50 [15]: 15.8 µM
- GI50 [16]: > 100 µM
- GI50 [17]: > 100 µM
- GI50 (SK-OV-3): > 100 µM
- GI50 [18]: > 100 µM
- GI50 (ACHN): > 100 µM
- GI50 (St-4): > 100 µM
- GI50 [19]: > 100 µM
- GI50 [20]: 0.832 µM
- GI50 [21]: 0.617 µM
- GI50 [22]: > 100 µM
- GI50 [23]: 1.7 µM
- GI50 (DU-145): > 100 µM
- GI50 [24]: > 100 µM

Compound: CCCCCCCCCCCC[C@@H](O)[C@H]1CC[C@H]([C@H](O)CCCCCCCCCCCCC2=C[C@H](C)OC2=O)O1 [REL-SOLAMIN]
- GI50 [1]: > 100 µM
- GI50 [2]: > 100 µM
- GI50 [3]: > 100 µM
- GI50 (MDA-MB-231): > 100 µM
- GI50 (U-251): > 100 µM
- GI50 (SF-268): > 100 µM
- GI50 [4]: 39.8 µM
- GI50 [5]: > 100 µM
- GI50 (SNB-75): > 100 µM
- GI50 [6]: > 100 µM
- GI50 [7]: > 100 µM
- GI50 (KM12): > 100 µM
- GI50 (HT-29): > 100 µM
- GI50 [8]: > 100 µM
- GI50 [9]: > 100 µM
- GI50 (NCI-H226): > 100 µM
- GI50 (NCI-H460): > 100 µM
- GI50 (A549): > 100 µM
- GI50 [11]: > 100 µM
- GI50 [14]: > 100 µM
- GI50 [15]: > 100 µM
- GI50 [16]: > 100 µM
- GI50 [17]: > 100 µM
- GI50 (SK-OV-3): > 100 µM
- GI50 [18]: > 100 µM
- GI50 (ACHN): > 100 µM
- GI50 (St-4): > 100 µM
- GI50 [19]: > 100 µM
- GI50 [22]: > 100 µM
- GI50 [23]: > 100 µM
- GI50 (DU-145): > 100 µM
- GI50 [24]: > 100 µM

Compound: CCCCCCCCCCCC[C@@H](O)[C@H]1CC[C@H]([C@H](O)CCCCCCCCCCNC(=O)c2cccs2)O1
- GI50 [1]: 3.39 µM
- GI50 [2]: 18.2 µM
- GI50 [3]: 3.24 µM
- GI50 (MCF7): 2.19 µM
- GI50 (MDA-MB-231): 2.57 µM
- GI50 (U-251): 2 µM
- GI50 (SF-268): 3.98 µM
- GI50 [4]: 1.41 µM
- GI50 [5]: 17 µM
- GI50 (SNB-75): 3.39 µM
- GI50 [6]: 2.29 µM
- GI50 [7]: 2 µM
- GI50 (KM12): 3.09 µM
- GI50 (HT-29): 2.19 µM
- GI50 [8]: 5.75 µM
- GI50 [9]: 1.29 µM
- GI50 (NCI-H23 [10]): 0.676 µM
- GI50 (NCI-H226): 2.09 µM
- GI50 (NCI-H522): 1.1 µM
- GI50 (NCI-H460): 2.29 µM
- GI50 (A549): 3.72 µM
- GI50 [11]: 1.82 µM
- GI50 [12]: 0.282 µM
- GI50 [13]: 1.29 µM
- GI50 [14]: 0.0427 µM
- GI50 [15]: 1.82 µM
- GI50 [16]: 2.51 µM
- GI50 [17]: 3.02 µM
- GI50 (SK-OV-3): 28.8 µM
- GI50 [18]: 3.24 µM
- GI50 (ACHN): 2.57 µM
- GI50 (St-4): 1.82 µM
- GI50 [19]: 1.82 µM
- GI50 [20]: 0.269 µM
- GI50 [21]: 0.363 µM
- GI50 [22]: 3.31 µM
- GI50 [23]: 1.51 µM
- GI50 (DU-145): 2.69 µM
- GI50 [24]: 2.29 µM
